Measurements reported in patent publication US20010044463A1, “Methods for controlling gram negative bacteria in mammals” (priority 1997, published 2001).

Experiments:
[1] = test system: H. pylori ATCC 43504; experiment: Minimum Inhibitory Concentration (MIC) blood agar plate growth inhibition; type: cell-based, Helicobacter pylori
Experimental: Subsequent dilutions were made in ethanol immediately prior to use. […] Subsequent dilutions were made in BHI medium (Brain heart infusion broth, Difco #0037-07-0) immediately prior to use.
(§1) Blood agar base (BAB) was prepared containing 1.5% agar and autoclaved. 20 ml samples of autoclaved BAB were poured into 50 mL tubes and placed in a 56° C. water bath.
The mixed media preparation was poured into a petri dished and allowed to solidify.
(§2) Prior to inoculation of petri plates, bacteria or cultures were examined for morphology under a phase microscope to confirm motility and physical characteristics, e.g., spiral shaped. The organisms were washed off the plate into PBS (Phosphate buffered saline) (80.0 g NaCl, 2.0 g KCl, 2.4 g KH2PO4 11.5 g Na2HPO4 or 24.4 g Na2HPO4/2H2O per 1 liter deionized water, pH 7.2, sterilized by autoclaving) and diluted into BHI at a concentration of 10^8/ml (O.D. of 0.3 units diluted 1:30). Ten microliters of solution containing 10^6 organisms were spread onto a petri plate and grown under microaerophilic conditions for 3 days unless specified. Control organisms were grown under microaerophilic conditions.
(§3) Inhibition of growth was determined by the amount of colonies present within the petri plate. The following factors were used for growth inhibition: ±=0-20 colonies, +=20-50 colonies, ++=50-200 colonies and +++=200+ colonies.

[2] = test system: H. pylori (urease positive) ATCC Number 51652; experiment: as above; type: cell-based, Helicobacter pylori; settings: Table XVII, Blood agar base + 3% sheep blood
Experimental: (§4) Monensin (Sigma Cat. No. M-5273) was dissolved in 100% absolute ethanol (AAPER Alcohol and Chemical Co.) at a concentration of 20 mg/ml. Subsequent dilutions were made in ethanol immediately prior to use. Nigericin (Sigma Cat. No. N-7143) was dissolved in DMSO at 2 mg/ml. Subsequent dilutions were made in BHI medium (Brain heart infusion broth, Difco #0037-07-0) immediately prior to use.
as §1
(§5) 100 μl of a drug (final concentration equivalent to 1:200 of original concentration) and 1.2 ml of sheep blood (Colorado Senun Company # CS-1112) (blood diluted in a 1:1 buffer providing a 3% concentration of blood per 20 ml medium sample) were added to 20 ml sample of media and mixed. The mixed media preparation was poured into a petri dished and allowed to solidify.
as §2, §3

[3] = test system: Staph ATCC 14775; experiment: Blood agar plate growth inhibition, control organism; type: cell-based; settings: Table XV, Non microaerophilic conditions
Experimental: as §4, §1, §5
as §2, with “Control organisms were grown under microaerophilic conditions.” left out
as §3

[4] = Tables IX-XIII, final drug concentration 0.098 μg/ml
[5] = Tables IX-XIII, final drug concentration 0.195 μg/ml
[6] = Tables IX-XIII, final drug concentration 0.39 μg/ml
[7] = Tables IX-XIII, final drug concentration 0.78 μg/ml
[8] = Tables IX-XIII, final drug concentration 1.56 μg/ml
[9] = Tables IX-XIII, final drug concentration 3.125 μg/ml
[10] = Tables IX-XIII, final drug concentration 6.25 μg/ml
[11] = Tables IX-XIII, final drug concentration 12.5 μg/ml
[12] = Tables IX-XIII, final drug concentration 25 μg/ml
[13] = Tables IX-XIII, final drug concentration 50 μg/ml
[14] = Tables IX-XIII, final drug concentration 100 μg/ml
[15] = final drug concentration 0.1 ng/ml
[16] = final drug concentration 1 ng/ml
[17] = final drug concentration 10 ng/ml
[18] = final drug concentration 100 ng/ml
[19] = final drug concentration 1 μg/ml
[20] = final drug concentration 10 μg/ml

Row | Compound | MIC ([1]; Tables IX-XIII) | growth (amount of colonies present within the petri plate) [1, 4] | growth (amount of colonies present within the petri plate) [1, 5] | growth (amount of colonies present within the petri plate) [1, 6] | growth (amount of colonies present within the petri plate) [1, 7] | growth (amount of colonies present within the petri plate) [1, 8] | growth (amount of colonies present within the petri plate) [1, 9] | growth (amount of colonies present within the petri plate) [1, 10] | growth (amount of colonies present within the petri plate) [1, 11] | growth (amount of colonies present within the petri plate) [1, 12] | growth (amount of colonies present within the petri plate) [1, 13] | growth (amount of colonies present within the petri plate) [1, 14] | growth (amount of colonies present within the petri plate) [2, 15] | growth (amount of colonies present within the petri plate) [2, 16] | growth (amount of colonies present within the petri plate) [2, 17] | growth (amount of colonies present within the petri plate) [2, 18] | growth (amount of colonies present within the petri plate) [2, 19] | growth (amount of colonies present within the petri plate) [2, 20] | further results
1 | 26-O Phenylmonensin [Monensin phenyl carbamate] | MIC = 1.56 μg/ml | (+++) (+++=200+ colonies) | (+++) (+++=200+ colonies) | (++) (++=50-200 colonies) | (++) (++=50-200 colonies) | (+) small colonies (+=20-50 colonies) | (±) few small colonies (±=0-20 colonies) | No growth | No growth | No growth | No growth | No growth |  |  |  |  |  |  | 
2 | CNc1ccc2oc(C[C@H]3O[C@@]4(CC[C@H]3C)O[C@H]([C@H](C)C(=O)c3ccc[nH]3)[C@H](C)C[C@H]4C)nc2c1C(=O)O [A23187] |  |  |  |  |  |  |  |  |  |  |  |  | (+++) (+++=200+ colonies) | (+++) (+++=200+ colonies) | (+++) (+++=200+ colonies) | (+++) (+++=200+ colonies) | No growth | No growth | 
3 | CC[C@@]1([C@@H]2O[C@@H]([C@H]3O[C@@](O)(CO)[C@H](C)C[C@@H]3C)C[C@@H]2C)CC[C@H]([C@]2(C)CC[C@]3(C[C@H](O)[C@@H](C)[C@@H]([C@@H](C)[C@@H](OC)[C@H](C)C(=O)OCc4ccccc4)O3)O2)O1 [Benzyl Monensin, monensin benzyl ester] | MIC = 25 μg/ml | (+++) (+++=200+ colonies) | (+++) (+++=200+ colonies) | (+++) (+++=200+ colonies) | (+++) (+++=200+ colonies) | (+++) (+++=200+ colonies) | (+++) (+++=200+ colonies) | (+++) (+++=200+ colonies) | (++) (++=50-200 colonies) | (±) (±=0-20 colonies) | (±) (±=0-20 colonies) | (±) (±=0-20 colonies) |  |  |  |  |  |  | 
4 | CCC1(C2OC(C3OC(O)(COC(=O)NC(C)NC(=O)OCC4c5ccccc5-c5ccccc54)C(C)CC3C)CC2C)CCC(C2(C)CCC3(CC(O)C(C)C(C(C)C(OC)C(C)C(=O)O)O3)O2)O1 (centres unmarked) [Fmoc-Ala-monensin, 26-O-[1-(Fmoc-amino)ethylcarbamoyl] monensin] | MIC = 6.25 μg/ml | (+++) (+++=200+ colonies) | (+++) (+++=200+ colonies) | (+++) (+++=200+ colonies) | (+++) (+++=200+ colonies) | (+++) (+++=200+ colonies) | (+++) (+++=200+ colonies) | (±) (±=0-20 colonies) | No growth | No growth | No growth | No growth |  |  |  |  |  |  | 
5 | C[C@H](CCC(=O)O)C[C@H](C)C[C@H](C)C(=O)/C=C(\O)[C@H](C)C[C@H](C)C/C=C/[C@@H](C)[C@@H](O)[C@@H](C)[C@@H](O)C[C@@H]1CC[C@@](C)([C@H]2CC[C@@](C)([C@@H](C)O)O2)O1 [Ionomycin, ionomycin] |  |  |  |  |  |  |  |  |  |  |  |  | (+++) (+++=200+ colonies) | (+++) (+++=200+ colonies) | (+++) (+++=200+ colonies) | (+++) (+++=200+ colonies) | (+++) (+++=200+ colonies) | (+++) (+++=200+ colonies) | 
6 | CC[C@@H](C(=O)[C@@H](C)[C@@H](O)[C@H](C)CCc1ccc(C)c(O)c1C(=O)O)[C@H]1O[C@](CC)([C@H]2CC[C@](O)(CC)[C@H](C)O2)C[C@@H]1C [Lasalocid, lasalocid] |  |  |  |  |  |  |  |  |  |  |  |  | (+++) (+++=200+ colonies) | (+++) (+++=200+ colonies) | (+++) (+++=200+ colonies) | (+++) (+++=200+ colonies) | (+++) (+++=200+ colonies) | (+++) (+++=200+ colonies) | growth (amount of colonies present within the petri plate) [3, 17]: (+++) (+++=200+ colonies); growth (amount of colonies present within the petri plate) [3, 18]: (+++) (+++=200+ colonies); growth (amount of colonies present within the petri plate) [3, 19]: (+++) (+++=200+ colonies); growth (amount of colonies present within the petri plate) [3, 20]: No growth; growth (amount of colonies present within the petri plate) ([1]; Table VII, urease positive, final drug concentration 10 μg/ml): (+++) (+++=200+ colonies)
7 | CCC1(C2OC(C3OC(O)(COC(=O)Nc4cccnc4)C(C)CC3C)CC2C)CCC(C2(C)CCC3(CC(O)C(C)C(C(C)C(OC)C(C)C(=O)O)O3)O2)O1 (centres unmarked) [Monensin pyridyl carbamate, 26-O-(3-pyridylcarbamoyl) monensin] | MIC = 3.12 μg/ml | (+++) (+++=200+ colonies) | (+++) (+++=200+ colonies) | (+++) (+++=200+ colonies) | (+++) (+++=200+ colonies) | (++) (++=50-200 colonies) | (±) (±=0-20 colonies) | No growth | No growth | No growth | No growth | No growth |  |  |  |  |  |  | 
